Experimental findings from US8906925B2, “Pyrido[4,3-B]indoles containing rigid moieties” (Medivation Technologies, Inc., priority 2008, dated 2014) are described below.

Read-outs that look alike come from different tables or passages of the source.

Assay [1] concerns the target T1, human recombinant histamine H2 receptor (Homo sapiens, UniProt P25021).
T1 construct: expressed in transfected cells; host or cells: Chinese hamster ovary (CHO) K1 cells
The experiment in a line: Histamine H2 radioligand binding ([125I]Aminopotentidine). The conditions noted are these: read-out: Histamine Binding (1 μM) H2, percent inhibition of specific binding, 1 μM. In short, it runs like this:
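CHO-K1 cells expressing human recombinant H2 receptor, 50 mM phosphate buffer pH 7.4; compounds incubated with 0.1 nM [125I]aminopotentidine for 120 min at 25 °C. Nonspecific binding defined with 3 μM tiotidine; specifically bound radioligand counted after filtration and washing.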

The target of assay [2] is T2, human recombinant adrenergic α2A receptor (Homo sapiens, UniProt P08913).
T2 construct: expressed in transfected cells; host or cells: insect Sf9 cells
T2 sequence (P08913 1-465): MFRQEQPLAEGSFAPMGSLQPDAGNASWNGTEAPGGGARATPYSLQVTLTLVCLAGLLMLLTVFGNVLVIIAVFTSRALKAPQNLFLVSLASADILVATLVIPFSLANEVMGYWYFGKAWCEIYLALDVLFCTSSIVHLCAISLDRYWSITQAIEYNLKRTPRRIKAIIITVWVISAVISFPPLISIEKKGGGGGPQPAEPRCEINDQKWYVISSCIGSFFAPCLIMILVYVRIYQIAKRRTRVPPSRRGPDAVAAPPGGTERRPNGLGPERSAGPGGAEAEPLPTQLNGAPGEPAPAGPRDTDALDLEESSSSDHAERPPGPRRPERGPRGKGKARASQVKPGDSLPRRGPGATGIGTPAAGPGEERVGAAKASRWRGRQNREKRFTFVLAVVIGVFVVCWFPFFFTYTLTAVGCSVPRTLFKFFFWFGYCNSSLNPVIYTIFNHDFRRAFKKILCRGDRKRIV
The assay is described as follows: Adrenergic α2A radioligand binding ([3H]MK-912). The conditions noted are these: compound at 1 μM. In short, it runs like this:
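Sf9-expressed human receptor in 50 mM Tris-HCl pH 7.4, 12.5 mM MgCl2, 2 mM EDTA; compounds at 1 μM or lower (1% DMSO) incubated with 1 nM [3H]MK-912 for 60 min at 25° C. Non-specific binding defined with 10 μM WB-4101; filtered bound radioactivity counted, reported as percent inhibition of specific binding.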

The target of assay [3] is T3, human recombinant adrenergic α2B receptor (Homo sapiens, UniProt P18089).
T3 construct: expressed in transfected cells; host or cells: Chinese hamster ovary (CHO-K1) cells
T3 sequence (P18089 1-450): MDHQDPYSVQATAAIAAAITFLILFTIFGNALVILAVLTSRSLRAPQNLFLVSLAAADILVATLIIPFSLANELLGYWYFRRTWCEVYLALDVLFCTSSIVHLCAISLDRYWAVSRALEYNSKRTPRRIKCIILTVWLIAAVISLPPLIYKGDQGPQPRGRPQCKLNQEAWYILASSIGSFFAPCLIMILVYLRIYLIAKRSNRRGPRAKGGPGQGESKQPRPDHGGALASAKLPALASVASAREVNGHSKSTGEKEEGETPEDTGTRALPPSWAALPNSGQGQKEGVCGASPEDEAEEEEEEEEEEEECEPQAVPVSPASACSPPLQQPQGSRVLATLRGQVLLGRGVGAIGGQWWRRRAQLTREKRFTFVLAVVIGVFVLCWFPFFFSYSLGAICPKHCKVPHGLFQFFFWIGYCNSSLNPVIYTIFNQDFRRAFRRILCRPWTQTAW
The assay is described as follows: Adrenergic α2B radioligand binding ([3H]Rauwolscine). As to conditions: compound at 1 μM. In short, it runs like this: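 Membranes from CHO-K1 cells expressing the receptor were incubated with 2.5 nM [3H]Rauwolscine for 60 min at 25 °C in Tris-HCl buffer pH 7.4 with MgCl2, EDTA and BSA. Non-specific binding was defined with 10 μM prazosin. Compounds were tested at ≤1 μM in 1% DMSO and read out as % inhibition of specific binding after filtration.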

Assay [4] has as its target T4, human recombinant serotonin (5-Hydroxytryptamine) 5-HT6 receptor (Homo sapiens, UniProt P50406).
T4 construct: expressed in transfected cells; host or cells: human HeLa cells
The assay is described as follows: Serotonin 5-HT6 radioligand binding ([3H]LSD). As to conditions: compound at 1 μM; for inhibition at 1 µM: read-out: Inhibition of ligand binding, Serotonin 5-HT6 (percent inhibition of specific binding). The method, then:
Compounds of the invention were incubated with 1.5 nM [3H]Lysergic acid diethylamide (LSD) for 120 min. at 37° C. […] Receptor proteins were filtered and washed, the filters were then counted to determine [3H]LSD specifically bound. Compounds were screened at 1 μM or lower, using 1% DMSO as vehicle. Biochemical assay results are presented as the percent inhibition of specific binding in Table 10.

The target in assay [5] is human recombinant serotonin (5-Hydroxytryptamine) 5-HT7 receptor (Homo sapiens, UniProt P34969). The assay is described as follows: Serotonin 5-HT7 radioligand binding ([3H]LSD). As to conditions: compound at 1 μM; for inhibition at 1 µM: read-out: Inhibition of ligand binding, Serotonin 5-HT7 (percent inhibition of specific binding). An excerpt:
Receptor proteins were filtered and washed, the filters were then counted to determine [^3H]LSD specifically bound.

Setting [6] is: read-out: Inhibition of ligand binding, Adrenergic α2A (percent inhibition of specific binding).
Setting [7] is: […] [3H]Rauwolscine, read-out: Inhibition of ligand binding, Adrenergic α2B (percent inhibition of specific binding).

T1 sequence (P25021 whole entry): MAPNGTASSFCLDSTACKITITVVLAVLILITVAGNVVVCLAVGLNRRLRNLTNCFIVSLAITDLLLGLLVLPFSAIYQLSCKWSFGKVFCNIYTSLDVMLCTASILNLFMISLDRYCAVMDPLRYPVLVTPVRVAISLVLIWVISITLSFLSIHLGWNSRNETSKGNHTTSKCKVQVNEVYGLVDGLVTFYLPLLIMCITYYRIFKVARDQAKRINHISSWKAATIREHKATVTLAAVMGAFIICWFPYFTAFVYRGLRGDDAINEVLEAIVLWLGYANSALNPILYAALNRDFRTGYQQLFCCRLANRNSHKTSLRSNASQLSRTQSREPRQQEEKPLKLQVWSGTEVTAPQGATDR
Chain of human recombinant serotonin (5-Hydroxytryptamine) 5-HT7 receptor (P34969 whole entry): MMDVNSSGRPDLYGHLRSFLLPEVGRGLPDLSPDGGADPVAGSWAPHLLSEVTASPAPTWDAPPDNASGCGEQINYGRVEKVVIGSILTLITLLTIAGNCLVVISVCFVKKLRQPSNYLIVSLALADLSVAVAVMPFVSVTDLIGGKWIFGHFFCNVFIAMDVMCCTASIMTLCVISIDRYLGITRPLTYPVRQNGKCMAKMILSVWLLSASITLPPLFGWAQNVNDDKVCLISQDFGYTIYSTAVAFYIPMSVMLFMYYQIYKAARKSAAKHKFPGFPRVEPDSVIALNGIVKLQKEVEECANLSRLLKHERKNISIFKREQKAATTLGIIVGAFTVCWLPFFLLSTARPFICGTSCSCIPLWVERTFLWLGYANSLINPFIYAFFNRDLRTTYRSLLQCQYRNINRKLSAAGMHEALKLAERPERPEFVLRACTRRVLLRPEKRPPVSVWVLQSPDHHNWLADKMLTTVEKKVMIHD
T4 sequence (P50406 whole entry): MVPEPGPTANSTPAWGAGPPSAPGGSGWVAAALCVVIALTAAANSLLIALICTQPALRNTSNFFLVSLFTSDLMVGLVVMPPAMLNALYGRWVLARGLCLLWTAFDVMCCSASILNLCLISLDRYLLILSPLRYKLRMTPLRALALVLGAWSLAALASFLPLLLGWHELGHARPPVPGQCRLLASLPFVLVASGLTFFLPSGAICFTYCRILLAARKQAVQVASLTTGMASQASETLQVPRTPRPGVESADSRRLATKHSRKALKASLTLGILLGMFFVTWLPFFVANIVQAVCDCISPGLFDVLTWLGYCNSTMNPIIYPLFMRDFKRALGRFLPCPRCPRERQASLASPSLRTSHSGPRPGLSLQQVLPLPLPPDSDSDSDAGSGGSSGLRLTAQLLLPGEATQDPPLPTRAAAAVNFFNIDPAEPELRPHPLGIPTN

For the compound `CN1CCc2c(c3cc(Cl)ccc3n2C/C(=C\CCO)c2ccc(F)cc2)C1` [Compound No. 348, (Z)-5-(8-chloro-2-methyl-3,4-dihydro-1H-pyrido[4,3-b]indol-5(2H)-yl)-4-(4-fluorophenyl)pent-3-en-1-ol], the inhibition – broadly, the relative decrease from the control value, in per cent – at 1 µM in assay [1] is 73%; in assay [2] (percent inhibition of specific binding, read-out: Inhibition of ligand binding, Adrenergic α2A), 92%; in assay [3] (percent inhibition of specific binding, read-out: Inhibition of ligand binding, Adrenergic α2B) it was 105%; in assay [4], 94%; in assay [5], 93%. Moreover, the “Inhibition of ligand binding, Serotonin 5-HT6 (percent inhibition of specific binding)” value in assay [4] (1 µM) was 98%. For the same compound, in assay [5], the “Inhibition of ligand binding, Serotonin 5-HT7 (percent inhibition of specific binding)” value was 93/93%.

On to `CNC(=O)c1ccc2c(c1)c1c(n2C#Cc2ccc(F)cc2)CCN(C)C1` [Compound No. 483, 5-((4-fluorophenyl)ethynyl)-N,2-dimethyl-2,3,4,5-tetrahydro-1H-pyrido[4,3-b]indole-8-carboxamide], for which the inhibition at 1 µM in assay [1] turned out to be 10%; in assay [2] (setting [6]), 77%; in assay [3] (setting [7]), 14%; in assay [4], 53%; in assay [5] it was 16%.

Regarding `Cc1ccc2c(c1)c1c(n2C#Cc2ccc(F)cc2)CCN(C)C1` [Compound No. 478, 5-((4-fluorophenyl)ethynyl)-2,8-dimethyl-2,3,4,5-tetrahydro-1H-pyrido[4,3-b]indole], the inhibition at 1 µM in assay [1] was determined as 94%; in assay [2] (setting [6]), 96%; in assay [3] (setting [7]), 106%; in assay [4], 97%; in assay [5], 96%.
